According to patent US8293774B2, “Optically active (R)-aryloxypropionic acid amides and herbicidal composition comprising same” (Kyung Nong Corporation, priority 2007, dated 2012):

Tests used:
[1] = system: Barnyard grass; assay: Weed control test, 4-leaf stage plants (Test Example 1, Table 8); format: in vivo, Echinoch crus-galli Beauv. var. caudata Kitagawa
[2] = system: Rice; assay: as above
Method: Seeds of rice, wheat, soy bean, barley, corn, common sorgum, barnyard grass, large crabgrass, creek grass, green foxtail and fall panicum were placed in sandy loam in 600 cm^2 pots and covered with soil. After keeping the pots in a greenhouse at 20 to 30° C. allowing growth of the plants to the 3-leaf stage of the barnyard grass, 2,000 l/ha of an emulsion obtained by diluting with water a mixture of 1 part by weight of a test compound, 5 parts by weight of acetone and 1 part by weight of an emulsifying agent (Tween 80, Junsei) was applied to the surface of the foliage of the plants. The plant damage at 10 days and 20 days after the foliage treatment was visually evaluated from the level of 1 to 100% by comparison with the untreated control: […]

[3] = system: rice (Nampyung rice); assay: Foliage treatment with emulsions, dry rice field conditions, harmful effect on rice (Test Example 2, Table 9); format: in vivo; details: 6~6.5-leaf stage, 150 g a.i./ha, emulsion; for Harmful effect, 20 days: 20 days after foliage treatment; for Harmful effect, 30 days: 30 days after foliage treatment
Source text: (§1) Seeds of rice (Nampyung rice) and barnyard grasses (Echinochloa oryzicola and Echinochloa crus-galli var. crus-galli) were placed in sandy loam of pots, covered with soil, and grown in the dry rice field conditions.

[4] = system: ZEAMX (Zea mays L., corn); assay: Weed control test, foliage treatment (Test Example 1, Table 7); format: in vivo
Summary of the method: (§2)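 Post-emergence foliar spray, 2,000 l/ha aqueous emulsion (compound:acetone:emulsifier 1:5:1 w/w), applied once barnyard grass reached 3-leaf stage; greenhouse 20 to 30° C, sandy loam. Visual injury 1 to 100% vs untreated, 10 and 20 d post-treatment.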

[5] = system: SETVIR (Setaria viridis (L.) Beauv, green foxtail); assay: as above; format: in vivo
Summary of the method: as §2

[6] = system: SORBI (Andropogon sorghum, common sorgum); assay: as above; format: in vivo
Summary of the method: as §2

[7] = system: PANDI (Panium dichotomiflorum Michx, fall panicum); assay: as above; format: in vivo
Summary of the method: as §2

[8] = system: ARTHIS (Arthraxon hispidus (Thunb.) Makino, creek grass); assay: as above; format: in vivo
Summary of the method: as §2

[9] = system: ECHOG (Echinoch crus-galli Beauv. var. caudata Kitagawa, barnyard grass); assay: as above; format: in vivo; details: 3-leaf stage
Summary of the method: as §2

[10] = system: DIGSA (Digitaria Sanguinalis (L.) SCOP, large crabgrass); assay: as above; format: in vivo
Summary of the method: as §2

[11] = system: HORVU (Hordeum vulgare L., barley); assay: as above
[12] = system: GLXMA (Glycine max(L.) MERR, soy bean); assay: as above
[13] = system: TRZAW (Tritium aestivum L., wheat); assay: as above
[14] = system: ORYSA (Oryza sativa cv. Dongjin, rice); assay: as above
[15] = system: Echinochloa oryzicola; assay: Foliage treatment with emulsions, dry rice field conditions (Test Example 2, Table 9); format: in vivo; details: 150 g a.i./ha; emulsion of Formulation Example 3; division stage 1~2; 20 days after foliage treatment
Source text: as §1
(§3) Rice (6˜6.5-leaf stage, plant height 33.2 cm) and barnyard grasses (Echinochloa oryzicola: division stage 1˜2, plant height 38.0 cm, Echinochloa crus-galli var. crus-galli: division stage 1˜2, plant height 44.1 cm) were subjected to a foliage treatment with emulsions prepared according to Formulation Example 3 by using compounds of Examples 1, 5 and 13 (purity: 99% or more), wherein the emulsions were sprayed to the plants at a dosage of the active compound of 150 g/ha.
(§4) The herbicidal effect on the barnyard grasses and harmful effect on the rice of the test compounds at 20 days and 30 days after the foliage treatment were visually evaluated as in Test Example 1 in comparison with the untreated control, and the results are shown in Table 9.

[16] = system: Echinochloa crus-galli var. crus-galli; assay: as above; format: in vivo; details: 150 g a.i./ha; emulsion of Formulation Example 3; division stage 1~2; 20 days after foliage treatment
Source text: as §1, §3, §4

C[C@@H](Oc1ccc(Oc2nc3ccc(Cl)cc3o2)cc1)C(=O)Nc1nc2cc(Cl)ccc2o1 [Example 1, (R)-2-[4-(6-chloro-2-benzoxazolyloxy)phenoxy]propionic acid-N-(5-chloro-2-benzoxazolyl)amide]
95%: pest or weed control at 25 g/ha ([9]; Echinochloa crus-galli, foliar, 0.025 kg/ha, read-out: Plant damage (herbicidal activity), visually evaluated, ECHOG)
0%: Plant damage (herbicidal activity), visually evaluated, Rice ([2]; in vivo) | Harmful effect, 20 days [3] | Harmful effect, 30 days [3] | Plant damage (herbicidal activity), visually evaluated, HORVU ([11]; in vivo) | Plant damage (herbicidal activity), visually evaluated, GLXMA ([12]; in vivo) | Plant damage (herbicidal activity), visually evaluated, TRZAW ([13]; in vivo) | Plant damage (herbicidal activity), visually evaluated, ORYSA ([14]; in vivo)
100%: Plant damage (herbicidal activity), visually evaluated, Barnyard grass ([1]; 0.1 kg/ha) | Plant damage (herbicidal activity), visually evaluated, Barnyard grass ([1]; 0.4 kg/ha) | plant injury at 100 g/ha ([4]; Zea mays, foliar, 0.1 kg/ha, read-out: Plant damage (herbicidal activity), visually evaluated, ZEAMX) | plant injury at 200 g/ha ([4]; Zea mays, foliar, 0.2 kg/ha, read-out: Plant damage (herbicidal activity), visually evaluated, ZEAMX) | pest or weed control at 100 g/ha ([5]; Setaria viridis, foliar, 0.1 kg/ha, read-out: Plant damage (herbicidal activity), visually evaluated, SETVIR) | pest or weed control at 200 g/ha ([5]; Setaria viridis, foliar, 0.2 kg/ha, read-out: Plant damage (herbicidal activity), visually evaluated, SETVIR) | pest or weed control at 100 g/ha ([6]; Sorghum bicolor, foliar, 0.1 kg/ha, read-out: Plant damage (herbicidal activity), visually evaluated, SORBI) | pest or weed control at 200 g/ha ([6]; Sorghum bicolor, foliar, 0.2 kg/ha, read-out: Plant damage (herbicidal activity), visually evaluated, SORBI) | pest or weed control at 100 g/ha ([7]; Panicum dichotomiflorum, foliar, 0.1 kg/ha, read-out: Plant damage (herbicidal activity), visually evaluated, PANDI) | pest or weed control at 200 g/ha ([7]; Panicum dichotomiflorum, foliar, 0.2 kg/ha, read-out: Plant damage (herbicidal activity), visually evaluated, PANDI) | pest or weed control at 100 g/ha ([8]; Arthraxon hispidus, foliar, 0.1 kg/ha, read-out: Plant damage (herbicidal activity), visually evaluated, ARTHIS) | pest or weed control at 200 g/ha ([8]; Arthraxon hispidus, foliar, 0.2 kg/ha, read-out: Plant damage (herbicidal activity), visually evaluated, ARTHIS) | pest or weed control at 100 g/ha ([9]; Echinochloa crus-galli, foliar, 0.1 kg/ha, read-out: Plant damage (herbicidal activity), visually evaluated, ECHOG) | pest or weed control at 200 g/ha ([9]; Echinochloa crus-galli, foliar, 0.2 kg/ha, read-out: Plant damage (herbicidal activity), visually evaluated, ECHOG) | pest or weed control at 100 g/ha ([10]; Digitaria sanguinalis, foliar, 0.1 kg/ha, read-out: Plant damage (herbicidal activity), visually evaluated, DIGSA) | pest or weed control at 200 g/ha ([10]; Digitaria sanguinalis, foliar, 0.2 kg/ha, read-out: Plant damage (herbicidal activity), visually evaluated, DIGSA) | Herbicidal effect (0~100), 20 days, Echinochloa oryzicola [15] | Herbicidal effect (0~100), 20 days, Echinochloa crus-galli var. crus-galli [16]
30%: plant injury at 25 g/ha ([4]; Zea mays, foliar, 0.025 kg/ha, read-out: Plant damage (herbicidal activity), visually evaluated, ZEAMX)
60%: pest or weed control at 25 g/ha ([6]; Sorghum bicolor, foliar, 0.025 kg/ha, read-out: Plant damage (herbicidal activity), visually evaluated, SORBI)
70%: Plant damage (herbicidal activity), visually evaluated, Barnyard grass ([1]; 0.025 kg/ha) | pest or weed control at 25 g/ha ([5]; Setaria viridis, foliar, 0.025 kg/ha, read-out: Plant damage (herbicidal activity), visually evaluated, SETVIR) | pest or weed control at 25 g/ha ([8]; Arthraxon hispidus, foliar, 0.025 kg/ha, read-out: Plant damage (herbicidal activity), visually evaluated, ARTHIS)
90%: Plant damage (herbicidal activity), visually evaluated, Barnyard grass ([1]; 0.05 kg/ha) | pest or weed control at 25 g/ha ([7]; Panicum dichotomiflorum, foliar, 0.025 kg/ha, read-out: Plant damage (herbicidal activity), visually evaluated, PANDI) | pest or weed control at 25 g/ha ([10]; Digitaria sanguinalis, foliar, 0.025 kg/ha, read-out: Plant damage (herbicidal activity), visually evaluated, DIGSA)

CCOC(=O)[C@@H](C)Oc1ccc(Oc2nc3ccc(Cl)cc3o2)cc1 [Phenoxaprop-P-ethyl, phenoxaprop-P-ethyl, reference compound]
20%: Plant damage (herbicidal activity), visually evaluated, Rice ([2]; 4-leaf stage, 0.025 kg/ha) | Plant damage (herbicidal activity), visually evaluated, SETVIR ([5]; 0.025 kg/ha) | Plant damage (herbicidal activity), visually evaluated, HORVU ([11]; barley, 0.1 kg/ha, foliage treatment)
40%: Plant damage (herbicidal activity), visually evaluated, DIGSA ([10]; 0.025 kg/ha) | Plant damage (herbicidal activity), visually evaluated, HORVU ([11]; barley, 0.2 kg/ha, foliage treatment)
0%: Plant damage (herbicidal activity), visually evaluated, HORVU ([11]; barley, 0.025 kg/ha, foliage treatment) | Plant damage (herbicidal activity), visually evaluated, GLXMA ([12]; soy bean, 0.025 kg/ha, foliage treatment) | Plant damage (herbicidal activity), visually evaluated, GLXMA ([12]; soy bean, 0.1 kg/ha, foliage treatment) | Plant damage (herbicidal activity), visually evaluated, GLXMA ([12]; soy bean, 0.2 kg/ha, foliage treatment) | Plant damage (herbicidal activity), visually evaluated, TRZAW ([13]; wheat, 0.025 kg/ha, foliage treatment) | Plant damage (herbicidal activity), visually evaluated, ORYSA ([14]; rice, 0.025 kg/ha, foliage treatment) | Plant damage (herbicidal activity), visually evaluated, ORYSA ([14]; rice, 0.1 kg/ha, foliage treatment) | Plant damage (herbicidal activity), visually evaluated, ORYSA ([14]; rice, 0.2 kg/ha, foliage treatment)
23%: Harmful effect, 20 days [3]
10%: Plant damage (herbicidal activity), visually evaluated, TRZAW ([13]; wheat, 0.1 kg/ha, foliage treatment) | Plant damage (herbicidal activity), visually evaluated, TRZAW ([13]; wheat, 0.2 kg/ha, foliage treatment)
70%: Plant damage (herbicidal activity), visually evaluated, Rice ([2]; 4-leaf stage, 0.1 kg/ha)
80%: Plant damage (herbicidal activity), visually evaluated, Rice ([2]; 4-leaf stage, 0.4 kg/ha)
50%: Plant damage (herbicidal activity), visually evaluated, SORBI ([6]; 0.025 kg/ha)
100%: Plant damage (herbicidal activity), visually evaluated, Barnyard grass ([1]; 0.05 kg/ha) | Plant damage (herbicidal activity), visually evaluated, Barnyard grass ([1]; 0.1 kg/ha) | Plant damage (herbicidal activity), visually evaluated, Barnyard grass ([1]; 0.4 kg/ha) | Plant damage (herbicidal activity), visually evaluated, ZEAMX ([4]; 0.1 kg/ha) | Plant damage (herbicidal activity), visually evaluated, ZEAMX ([4]; 0.2 kg/ha) | Plant damage (herbicidal activity), visually evaluated, SETVIR ([5]; 0.1 kg/ha) | Plant damage (herbicidal activity), visually evaluated, SETVIR ([5]; 0.2 kg/ha) | Plant damage (herbicidal activity), visually evaluated, SORBI ([6]; 0.1 kg/ha) | Plant damage (herbicidal activity), visually evaluated, SORBI ([6]; 0.2 kg/ha) | Plant damage (herbicidal activity), visually evaluated, PANDI ([7]; 0.1 kg/ha) | Plant damage (herbicidal activity), visually evaluated, PANDI ([7]; 0.2 kg/ha) | Plant damage (herbicidal activity), visually evaluated, ARTHIS ([8]; 0.1 kg/ha) | Plant damage (herbicidal activity), visually evaluated, ARTHIS ([8]; 0.2 kg/ha) | Plant damage (herbicidal activity), visually evaluated, ECHOG ([9]; 0.1 kg/ha) | Plant damage (herbicidal activity), visually evaluated, ECHOG ([9]; 0.2 kg/ha) | Plant damage (herbicidal activity), visually evaluated, DIGSA ([10]; 0.1 kg/ha) | Plant damage (herbicidal activity), visually evaluated, DIGSA ([10]; 0.2 kg/ha) | Herbicidal effect (0~100), 20 days, Echinochloa oryzicola [15] | Herbicidal effect (0~100), 20 days, Echinochloa crus-galli var. crus-galli [16]
38%: Harmful effect, 30 days [3]
90%: Plant damage (herbicidal activity), visually evaluated, Barnyard grass ([1]; 0.025 kg/ha)
30%: Plant damage (herbicidal activity), visually evaluated, Rice ([2]; 4-leaf stage, 0.05 kg/ha) | Plant damage (herbicidal activity), visually evaluated, ZEAMX ([4]; 0.025 kg/ha) | Plant damage (herbicidal activity), visually evaluated, PANDI ([7]; 0.025 kg/ha) | Plant damage (herbicidal activity), visually evaluated, ARTHIS ([8]; 0.025 kg/ha) | Plant damage (herbicidal activity), visually evaluated, ECHOG ([9]; 0.025 kg/ha)
